Measurements reported in patent publication US20250108036A1, “COMPOSITIONS FOR REMOVING SENESCENT CELLS AND USES THEREOF” (LIFECEUTIX CO., LTD., priority 2021, published 2025).

Tests used:
Type in all cases: cell-based, human
[1] = test system: foreskin cells in which senescence was induced by doxorubicin; assay: CellTiter-Glo cell viability of doxorubicin-induced senescent foreskin cells (Examples 1-2, 10, 11, 13; Tables 4, 63, 65); details: doxorubicin-induced senescent foreskin cells, CellTiter-Glo, 0 μM = 100; for viability at 90 µM: 90 μM test compound
Protocol: (§1) After 3 days, cell viability was measured using CellTiter-Glo Luminescent Cell Viability Assay (Promega) or light microscopy.

[2] = test system: HMGN1; assay: HMGN1 ELISA in culture medium of foreskin cells (Examples 10, 11; Tables 62, 63, 64); details: doxorubicin-treated foreskin cells, DMSO = 100; for HMGN1 / activity at 30 µM: 30 μM test compound; for activity at 90 µM: 90 μM test compound; for activity at 30 µM: read-out: HMGN1
[3] = test system: HMGN1; assay: HMGN1 ELISA in culture medium of A549 cancer cells (Example 12, Table 66); details: ELISA, DMSO = 100; for HMGN1 (amount of HMGN1 secreted in the cell culture): doxorubicin-induced senescent A549 cells; for HMGN1 (amount of HMGN1 secreted in the cell culture) / activity at 30 µM: test compound 30 μM; for activity at 90 µM: test compound 90 μM
[4] = test system: A549; assay: CellTiter-Glo cell viability of senescent A549 cancer cells (Example 12, Table 67); details: CellTiter-Glo; for Survival (%): doxorubicin-induced senescent A549 cancer cells; for viability at 90 µM: 90 μM test compound
[5] = test system: senescent foreskin cells; assay: survival of senescent foreskin cells treated with medium supernatant (secreted fluid) of compound-killed cells (Example 13, Tables 68, 69); details: culture medium supernatant from dying senescent cells treated with compound at 30 μM, 90 μM or 270 μM; senescent foreskin cells
Protocol: as §1
During this additional culture, by checking with an optical microscope, etc., the medium supernatants containing secreted fluid from normally proliferating and senescent cells in which cell death was induced were obtained. The obtained medium supernatant was replaced with the medium of normally proliferating and senescent cells, respectively, and cell survival rate was measured after 3 days.

[6] = Homo sapiens, 72 h, 1.1 μM test compound, read-out: Survival (%)
[7] = Homo sapiens, 72 h, 10 μM test compound, read-out: Survival (%)
[8] = Homo sapiens, 72 h, 30 μM test compound, read-out: Survival (%)
[9] = Homo sapiens, 72 h, read-out: Survival (%)
[10] = Homo sapiens, 72 h, […] test compound, read-out: Survival (%)
[11] = Homo sapiens, A549, doxorubicin-induced senescent A549 cells, read-out: HMGN1 (amount of HMGN1 secreted in the cell culture)
[12] = Homo sapiens, A549, doxorubicin-induced senescent A549 cancer cells, 1.1 μM test compound, read-out: Survival (%)
[13] = Homo sapiens, A549, doxorubicin-induced senescent A549 cancer cells, 10 μM test compound, read-out: Survival (%)
[14] = Homo sapiens, A549, doxorubicin-induced senescent A549 cancer cells, 30 μM test compound, read-out: Survival (%)
[15] = Homo sapiens, A549, doxorubicin-induced senescent A549 cancer cells, read-out: Survival (%)

## C[C@@H]1C(=O)C(C#N)=C[C@]2(c3ccccc3)c3c(c(-c4cncnc4)nn3C)CC[C@@H]12 [LX-2408]
[1]; 1.1 μM test compound
  Survival (%): 85.9%
[1]; […] test compound
  Survival (%): 37.5%
[2]
  HMGN1: 297
[3]
  HMGN1 (amount of HMGN1 secreted in the cell culture): 329
[4]; 1.1 μM test compound
  Survival (%): 96.5%
[4]; 10 μM test compound
  Survival (%): 15.9%
[5]
  Survival: 55.2

## CC1=C(C)C(=O)C(CCCCCCCCCC[P+](c2ccccc2)(c2ccccc2)c2ccccc2)=CC1=O.[Br-] [LX-1205]
[1]; 1.1 μM test compound
  Survival (%): 0.1%
[2]
  HMGN1: 279
[3]
  HMGN1 (amount of HMGN1 secreted in the cell culture): 279
[4]; 1.1 μM test compound
  Survival (%): 34.2%
[5]
  Survival: 53.4

## Cc1nc(-c2nc(-c3ccc(OC(F)(F)F)cc3)no2)nn1Cc1cccc(N2CCC(S(C)(=O)=O)CC2)c1 [LX-3200]
[1]; 1.1 μM test compound
  Survival (%): 92.2%
[1]; 10 μM test compound
  Survival (%): 14.3%
[1]; […] test compound
  Survival (%): 78.6%
[2]
  HMGN1: 234
[3]
  HMGN1 (amount of HMGN1 secreted in the cell culture): 305
[4]; 1.1 μM test compound
  Survival (%): 94.9%
[4]; 10 μM test compound
  Survival (%): 61.6%
[4]; 30 μM test compound
  Survival (%): 1.6%
[5]
  Survival: 54.9

## C[Si](C)(Cc1ccc(F)cc1)CN1CCCCC1.Cl [LX-1407, Silperisone, reference compound]
[1]; 1.1 μM test compound
  Survival (%): 99.4%
[1]; 10 μM test compound
  Survival (%): 72.8%
[1]; 30 μM test compound
  Survival (%): 19.9%
[1]; […] test compound
  Survival (%): 95.9%
[2]
  HMGN1: 232
[3]
  HMGN1 (amount of HMGN1 secreted in the cell culture): 175
[4]; 1.1 μM test compound
  Survival (%): 101.5%
[4]; 10 μM test compound
  Survival (%): 71.7%
[4]; 30 μM test compound
  Survival (%): 39.4%
[5]
  Survival: 69.9

## CCCCC/C=C\C/C=C\C/C=C\CCCCCCC(=O)O [LX-2705, Dihomogamma-linolenic acid]
[1]; [6]
  viability at 1.1 µM: 102%
[1]; [7]
  viability at 10 µM: 72.1%
[1]; [8]
  viability at 30 µM: 45.5%
[1]; [9]
  viability at 90 µM: 31.7%
[1]; [10]
  viability at […]: 102%
[2]; Homo sapiens
  activity at 90 µM: 202%
[3]; [11]
  activity at 90 µM: 160%
[4]; [12]
  viability at 1.1 µM: 101%
[4]; [13]
  viability at 10 µM: 96.8%
[4]; [14]
  viability at 30 µM: 100%
[4]; [15]
  viability at 90 µM: 61.2%

## CCC[C@H]1C(=O)C(C#N)C[C@@]2(C)c3nc(-c4cccc5ncccc45)nc(-c4ccccc4F)c3CC[C@H]12 (some centres unmarked) [LX-2503]
[1]; [6]
  viability at 1.1 µM: 82.4%
[1]; [10]
  viability at […]: 25.8%
[2]; Homo sapiens
  activity at 30 µM: 297%
[3]; [11]
  activity at 30 µM: 285%
[4]; [12]
  viability at 1.1 µM: 105%
[4]; [13]
  viability at 10 µM: 31.2%

## C=C(CN(C)C)C(=O)c1cc(C)ccc1C [LX-921]
[1]; [6]
  viability at 1.1 µM: 99.6%
[1]; [7]
  viability at 10 µM: 89.1%
[1]; [8]
  viability at 30 µM: 15.7%
[1]; [10]
  viability at […]: 89.2%
[2]; Homo sapiens
  activity at 30 µM: 311%
[3]; [11]
  activity at 90 µM: 175%
[4]; [12]
  viability at 1.1 µM: 99.5%
[4]; [13]
  viability at 10 µM: 91.2%
[4]; [14]
  viability at 30 µM: 90.9%
[4]; [15]
  viability at 90 µM: 39.7%

## COc1cc2nccc(Oc3ccc(NC(=O)NC4CC4)c(Cl)c3)c2cc1C(N)=O [LX-2803, Lenvatinib, reference compound]
[1]; [6]
  viability at 1.1 µM: 62%
[1]; [7]
  viability at 10 µM: 11.5%
[1]; [8]
  viability at 30 µM: 3.6%
[1]; [10]
  viability at […]: 43.9%
[2]; Homo sapiens
  activity at 30 µM: 282%
[3]; [11]
  activity at 30 µM: 195%
[4]; [12]
  viability at 1.1 µM: 91.2%
[4]; [13]
  viability at 10 µM: 84.9%
[4]; [14]
  viability at 30 µM: 54.4%

## CCCCC/C=C\C/C=C\C/C=C\C/C=C\CCCC(=O)O [LX-2701, Arachidonic acid]
[1]; [6]
  viability at 1.1 µM: 103%
[1]; [7]
  viability at 10 µM: 76.8%
[1]; [8]
  viability at 30 µM: 48.3%
[1]; [9]
  viability at 90 µM: 29.4%
[1]; [10]
  viability at […]: 97.3%
[2]; Homo sapiens
  activity at 90 µM: 194%
[3]; [11]
  activity at 90 µM: 179%
[4]; [12]
  viability at 1.1 µM: 102%
[4]; [13]
  viability at 10 µM: 97.1%
[4]; [14]
  viability at 30 µM: 93.8%
[4]; [15]
  viability at 90 µM: 42.9%

## NCC(=O)CCC(=O)O [LX-1103, 5-Aminolevulinic acid, reference compound]
[1]; [6]
  viability at 1.1 µM: 104%
[1]; [7]
  viability at 10 µM: 99.6%
[1]; [8]
  viability at 30 µM: 95.2%
[1]; [9]
  viability at 90 µM: 88%
[1]; Homo sapiens, 72 h, 270 μM test compound, read-out: Survival (%)
  viability at 270 µM: 61.3%
[1]; [10]
  viability at […]: 98.9%
[2]; Homo sapiens, 270 μM test compound
  activity at 270 µM: 172%
[3]; Homo sapiens, A549, doxorubicin-induced senescent A549 cells, test compound 270 μM, read-out: HMGN1 (amount of HMGN1 secreted in the cell culture)
  activity at 270 µM: 158%
[4]; [12]
  viability at 1.1 µM: 96.6%
[4]; [13]
  viability at 10 µM: 95.1%
[4]; [14]
  viability at 30 µM: 91%
[4]; [15]
  viability at 90 µM: 91.1%
[4]; Homo sapiens, A549, doxorubicin-induced senescent A549 cancer cells, 270 μM test compound, read-out: Survival (%)
  viability at 270 µM: 63.7%

## CN(C)CCCN1c2ccccc2CCc2ccc(Cl)cc21 [LX-3101, Clomipramine, reference compound]
[1]; [6]
  viability at 1.1 µM: 93.3%
[1]; [7]
  viability at 10 µM: 11.7%
[1]; [10]
  viability at […]: 75.8%
[2]; Homo sapiens
  activity at 30 µM: 284%
[3]; [11]
  activity at 30 µM: 334%
[4]; [12]
  viability at 1.1 µM: 89.2%
[4]; [13]
  viability at 10 µM: 7.1%

## Nc1cccc2c1CN(C1CCC(=O)NC1=O)C2=O (centres unmarked) [LX-3207, Lenalidomide, reference compound]
[1]; [6]
  viability at 1.1 µM: 99.3%
[1]; [7]
  viability at 10 µM: 56.4%
[1]; [8]
  viability at 30 µM: 17.9%
[1]; [10]
  viability at […]: 91.9%
[2]; Homo sapiens
  activity at 30 µM: 219%
[3]; [11]
  activity at 30 µM: 222%
[4]; [12]
  viability at 1.1 µM: 101%
[4]; [13]
  viability at 10 µM: 76.4%
[4]; [14]
  viability at 30 µM: 18.9%

## CCc1ccc(C(=O)C(C)CN2CCCC2)cc1 (centres unmarked) [LX-1405, Inaperisone, reference compound]
[1]; [6]
  viability at 1.1 µM: 102%
[1]; [7]
  viability at 10 µM: 69.6%
[1]; [8]
  viability at 30 µM: 28.5%
[1]; [10]
  viability at […]: 92.7%
[2]; Homo sapiens
  activity at 30 µM: 219%
[3]; [11]
  activity at 30 µM: 187%
[4]; [12]
  viability at 1.1 µM: 97.1%
[4]; [13]
  viability at 10 µM: 82.8%
[4]; [14]
  viability at 30 µM: 37.4%

## C[C@@H]1C(=O)C(C#N)=C[C@]2(c3ccccc3)c3c(c(-c4cccnc4)nn3C)CC[C@@H]12 [LX-2407, (5aS,6S,9aR)-1,6-dimethyl-7-oxo-9a-phenyl-3-(pyridin-3-yl)-4,5,5a,6,7,9a-hexahydro-1H-benzo[g]indazole-8-carbonitrile]
[1]; [6]
  viability at 1.1 µM: 15.4%
[1]; [10]
  viability at […]: 5.9%
[2]; Homo sapiens
  activity at 30 µM: 308%
[3]; [11]
  activity at 30 µM: 316%
[4]; [12]
  viability at 1.1 µM: 89.6%
[4]; [13]
  viability at 10 µM: 41.8%
